Biological target: T1, human ALK (Homo sapiens, UniProt Q9UM73)
T1 construct: GST (N); purchased Invitrogen, Carlsbad, Calif; (or prepared by AstraZeneca); host or cells: insect cells
Experiment: ALK kinase mobility shift assay (Caliper LC3000)
Type: biochemical
Settings: cumulative geometric means including test re-runs, some obtained since the priority filings; ATP 30 μM (Km) or 5 mM, not specified which; read-out: ALK Enzyme IC50 (μM)**
Description: ALK kinase activity was determined by measuring the kinase's ability to phosphorylate a tyrosine residue within a peptide substrate using a mobility shift assay on a Caliper LC3000 reader (Caliper Life Sciences, Hopkinton, Mass.), which measures fluorescence of the phosphorylated and unphosphorylated substrate and calculates a ratiometric value to determine percent turnover.
To measure ALK kinase activity, the ALK enzyme used was N-terminal GST-tagged, recombinant, human ALK, amino acids 1058-1620 (Genbank Accession number NP_004295) expressed in insect cells and activated in-vitro via autophosphorylation. This was either purchased from a commercially available source (Invitrogen, Carlsbad, Calif.) or prepared by AstraZeneca. The kinase was incubated with a FAM labeled SRCtide substrate (5FAM-GEEPLYWSFPAKKK-NH2, AnaSpec, Fremont, Calif.), 30 μM adenosine triphosphate (ATP, at Km concentration) or 5 mM ATP, 50 mM HEPES buffer (pH 7.3), 1 mM DTT, 0.01% Tween 20, 50 μg/ml BSA and 10 mM MgCl2 for 90 minutes at room temperature. After this time, the kinase reaction was stopped by adding quenching buffer containing final concentrations of 36 mM ethylenediaminetetraacetic acid (EDTA), 65 mM HEPES buffer (pH 7.3), 0.2% Coatin Reagent 3 (Caliper Life Sciences, Hopkinton, Mass.), and 0.003% Tween 20. The reaction was performed in 384 well microtitre plates and the reaction products were detected using the Caliper LC3000 Reader in the presence of separation buffer consisting of 100 mM HEPES (pH 7.3), 15.8 mM EDTA, 0.1% Coatin Reagent 3 (Caliper, Mass.), 0.015% Brij-35, 5% DMSO, and 5.6 mM MgCl2. The separation conditions set up on the Caliper LC3000 were −1.7 PSI, −400V upstream voltage, −2000V downstream voltage, 0.2 second sample sip, 45 second post sip, and 150 seconds final delay. The percentage of inhibition of ALK enzyme activity by compounds were measured based on Max signals (DMSO control) and Min signals (EDTA control) in the plates. Data was graphed and IC50s calculated by IDBS ActivityBase program.

T1 sequence (Q9UM73 1058-1620): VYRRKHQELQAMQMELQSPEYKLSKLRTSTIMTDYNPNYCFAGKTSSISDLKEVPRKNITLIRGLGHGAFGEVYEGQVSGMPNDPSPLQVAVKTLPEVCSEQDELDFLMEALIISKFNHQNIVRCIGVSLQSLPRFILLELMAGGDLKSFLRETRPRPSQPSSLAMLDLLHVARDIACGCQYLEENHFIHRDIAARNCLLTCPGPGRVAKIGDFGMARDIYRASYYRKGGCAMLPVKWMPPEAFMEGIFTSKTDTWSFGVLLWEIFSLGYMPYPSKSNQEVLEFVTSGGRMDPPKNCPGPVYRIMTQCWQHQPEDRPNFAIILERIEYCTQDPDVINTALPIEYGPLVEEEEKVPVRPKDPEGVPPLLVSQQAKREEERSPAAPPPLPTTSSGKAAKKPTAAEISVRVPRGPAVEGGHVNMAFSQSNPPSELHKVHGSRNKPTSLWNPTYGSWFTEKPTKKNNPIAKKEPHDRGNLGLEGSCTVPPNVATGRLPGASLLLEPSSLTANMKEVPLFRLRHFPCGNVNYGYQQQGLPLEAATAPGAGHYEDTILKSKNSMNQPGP

Point of comparison: `COc1cc(N2CCC(N)C(C)(C)C2)ccc1Nc1ncc(Cl)c(-c2c[nH]c3ccccc23)n1` (stereo not shown) [Example 30, N-(4-(4-amino-3,3-dimethylpiperidin-1-yl)-2-methoxyphenyl)-5-chloro-4-(1H-indol-3-yl)pyrimidin-2-amine], IC50 0.151 µM. Against it:
- COc1cc(N2CCC(N(C)C)CC2)ccc1Nc1ncc(Cl)c(-c2c[nH]c3ccccc23)n1 [Example 12, 5-Chloro-N-(4-(4-(dimethylamino)piperidin-1-yl)-2-methoxyphenyl)-4-(1H-indol-3-yl)pyrimidin-2-amine] — 7.2-fold lower, 0.021 µM
- COc1cc(N2CCC(N)C(F)C2)ccc1Nc1ncc(Cl)c(-c2c[nH]c3ccccc23)n1 (single isomer, unassigned) [Example 50, (cis)-N-(4-(4-amino-3-fluoropiperidin-1-yl)-2-methoxyphenyl)-5-chloro-4-(1H-indol-3-yl)pyrimidin-2-amine] — 6.9-fold lower, 0.022 µM
- COc1cc(N2CCC(N)C(F)C2)ccc1Nc1ncc(Cl)c(-c2c[nH]c3ccccc23)n1 (single isomer, unassigned) [Example 45, (trans)-N-(4-(4-amino-3-fluoropiperidin-1-yl)-2-methoxyphenyl)-5-chloro-4-(1H-indol-3-yl)pyrimidin-2-amine] — 2.5-fold lower, 0.061 µM
- COc1cc(P2(=O)CCC(N)CC2)ccc1Nc1ncc(C)c(-c2c[nH]c3ccccc23)n1 (single isomer, unassigned) [Example 43, N-[4-(4-amino-1-oxidophosphinan-1-yl)-2-methoxyphenyl]-4-(1H-indol-3-yl)-5-methylpyrimidin-2-amine] — within 1.5-fold, 0.158 µM
- COc1cc(N2CCC(N3CCN(C)CC3)CC2)ccc1Nc1ncc(F)c(-c2c[nH]c3ccccc23)n1 [Example 7, 5-Fluoro-4-(1H-Indol-3-yl)-N-(2-methoxy-4-(4-(4-methylpiperazin-1-yl)piperidin-1-yl)phenyl)pyrimidin-2-amine] — 1.9-fold lower, 0.079 µM
- COc1cc(P2(=O)CCC(N)CC2)ccc1Nc1ncc(C)c(-c2c[nH]c3ccccc23)n1 (single isomer, unassigned) [Example 44, N-[4-(4-amino-1-oxidophosphinan-1-yl)-2-methoxyphenyl]-4-(1H-indol-3-yl)-5-methylpyrimidin-2-amine] — 7.5-fold lower, 0.02 µM
- COc1cc(N2CCC(N(C)C)C(C)(C)C2)ccc1Nc1ncc(Cl)c(-c2c[nH]c3ccccc23)n1 (stereo not shown) [Example 32, 5-chloro-N-(4-(4-(dimethylamino)-3,3-dimethylpiperidin-1-yl)-2-methoxyphenyl)-4-(1H-indol-3-yl)pyrimidin-2-amine] — 2.4-fold higher, 0.356 µM

Same assay, conditions: geometric means of multiple test runs, as presented in the priority filings; ATP 30 μM (Km) or 5 mM, not specified which; read-out: ALK Enzyme IC50 (μM)*

Point of comparison: `COc1cc(N2CCC(N3CCN(C)CC3)CC2)ccc1Nc1ncc(Cl)c(-c2cn(C)c3ccccc23)n1` [Example 34, 5-Chloro-N-(2-methoxy-4-(4-(4-methylpiperazin-1-yl)piperidin-1-yl)phenyl)-4-(1-methyl-1H-indol-3-yl)pyrimidin-2-amine], IC50 0.148 µM. Against it:
- COc1cc(N2CCC(N3CCN(C)CC3)CC2)c(C)cc1Nc1ncc(Cl)c(-c2c[nH]c3ccccc23)n1 [Example 14, 5-Chloro-4-(1H-indol-3-yl)-N-(2-methoxy-5-methyl-4-(4-(4-methylpiperazin-1-yl)piperidin-1-yl)phenyl)pyrimidin-2-amine] — 6.2-fold lower, 0.024 µM
- COc1cc(N2CCC(N3CCN(C)CC3)CC2)c(F)cc1Nc1ncc(C)c(-c2c[nH]c3ccccc23)n1 [Example 38, N-[5-fluoro-2-methoxy-4-[4-(4-methylpiperazin-1-yl)-1-piperidyl]phenyl]-4-(1H-indol-3-yl)-5-methyl-pyrimidin-2-amine] — 1.7-fold higher, 0.258 µM
- COc1cc(N2CCC(N(C)C)CC2)ccc1Nc1ncc(Cl)c(-c2c[nH]c3ccccc23)n1 [Example 12, 5-Chloro-N-(4-(4-(dimethylamino)piperidin-1-yl)-2-methoxyphenyl)-4-(1H-indol-3-yl)pyrimidin-2-amine] — 6.4-fold lower, 0.023 µM
- COc1cc(N2CCC(N)CC2)ccc1Nc1ncc(C)c(-c2c[nH]c3ccccc23)n1 [Example 5, N-(4-(4-Aminopiperidin-1-yl)-2-methoxyphenyl)-4-(1H-indol-3-yl)-5-methylpyrimidin-2-amine] — 4.9-fold lower, 0.03 µM
- COc1cc(N2CCC(N3CCN(C)CC3)CC2)ccc1Nc1ncc(C(F)(F)F)c(-c2c[nH]c3ccccc23)n1 [Example 8, 4-(1H-Indol-3-yl)-N-(2-methoxy-4-(4-(4-methylpiperazin-1-yl)piperidin-1-yl)phenyl)-5-(trifluoromethyl)pyrimidin-2-amine] — 2.4-fold lower, 0.061 µM
- COc1cc(N2CCC(N3CCN(C)CC3)CC2)c(C)cc1Nc1ncc(C)c(-c2c[nH]c3ccccc23)n1 [Example 15, 4-(1H-Indol-3-yl)-N-(2-methoxy-5-methyl-4-(4-(4-methylpiperazin-1-yl)piperidin-1-yl)phenyl)-5-methylpyrimidin-2-amine] — within 1.5-fold, 0.144 µM
- COc1cc(N2CCC(N3CCNCC3)CC2)ccc1Nc1ncc(Cl)c(-c2c[nH]c3ccccc23)n1 [Example 3, 5-Chloro-4-(1H-indol-3-yl)-N-(2-methoxy-4-(4-(piperazin-1-yl)piperidin-1-yl)phenyl)pyrimidin-2-amine] — 2.1-fold lower, 0.07 µM
- COc1cc(N2CCC(N3CC[C@@H](F)C3)CC2)c(C)cc1Nc1ncc(Cl)c(-c2c[nH]c3ccccc23)n1 [Example 25, (R)-5-Chloro-N-(4-(4-(3-fluoropyrrolidin-1-yl)piperidin-1-yl)-2-methoxy-5-methylphenyl)-4-(1H-indol-3-yl)pyrimidin-2-amine] — 2.6-fold higher, 0.39 µM
- COc1cc(N2CCC(N(C)C)CC2)c(C)cc1Nc1ncc(C)c(-c2c[nH]c3ccccc23)n1 [Example 17, N-(4-(4-(Dimethylamino)piperidin-1-yl)-2-methoxy-5-methylphenyl)-4-(1H-indol-3-yl)-5-methylpyrimidin-2-amine] — 3.1-fold lower, 0.047 µM
- COc1cc(N2CCC(N(C)C)CC2)ccc1Nc1ncc(F)c(-c2c[nH]c3ccccc23)n1 [Example 13, N-(4-(4-(Dimethylamino)piperidin-1-yl)-2-methoxyphenyl)-5-fluoro-4-(1H-indol-3-yl)pyrimidin-2-amine] — 3-fold lower, 0.05 µM
- COc1cc(N2CCC(N3CCN(C(C)C)CC3)CC2)ccc1Nc1ncc(Cl)c(-c2c[nH]c3ccccc23)n1 [Example 23, 5-Chloro-4-(1H-indol-3-yl)-N-(4-(4-(4-isopropylpiperazin-1-yl)piperidin-1-yl)-2-methoxyphenyl)pyrimidin-2-amine] — 5.3-fold lower, 0.028 µM
- COc1cc(N2CCC(N)CC2)ccc1Nc1ncc(F)c(-c2c[nH]c3ccccc23)n1 [Example 41, N-[4-(4-Amino-1-piperidyl)-2-methoxy-phenyl]-5-fluoro-4-(1H-indol-3-yl)pyrimidin-2-amine] — 2.2-fold lower, 0.068 µM
- COc1cc(N2CCC(N(C)C)CC2)ccc1Nc1ncc(C)c(-c2c[nH]c3ccccc23)n1 [Example 11, N-(4-(4-(Dimethylamino)piperidin-1-yl)-2-methoxyphenyl)-4-(1H-indol-3-yl)-5-methylpyrimidin-2-amine] — 1.7-fold lower, 0.086 µM
- COc1cc(N2CCC(N)CC2)c(C)cc1Nc1ncc(C)c(-c2c[nH]c3ccccc23)n1 [Example 19, N-(4-(4-aminopiperidin-1-yl)-2-methoxy-5-methylphenyl)-4-(1H-indol-3-yl)-5-methylpyrimidin-2-amine] — 2.8-fold lower, 0.052 µM
- COc1cc(N2CCC(N3CCN(C)CC3)CC2)ccc1Nc1ncc(F)c(-c2c[nH]c3ccccc23)n1 [Example 7, 5-Fluoro-4-(1H-Indol-3-yl)-N-(2-methoxy-4-(4-(4-methylpiperazin-1-yl)piperidin-1-yl)phenyl)pyrimidin-2-amine] — 3.6-fold lower, 0.041 µM
- CNC1CCN(c2ccc(Nc3ncc(Cl)c(-c4c[nH]c5ccccc45)n3)c(OC)c2)CC1 [Example 2, 5-Chloro-4-(1H-indol-3-yl)-N-(2-methoxy-4-(4-(methylamino)piperidin-1-yl)phenyl)pyrimidin-2-amine] — 6.4-fold lower, 0.023 µM
- CNC1CCN(c2ccc(Nc3ncc(C)c(-c4c[nH]c5ccccc45)n3)c(OC)c2)CC1 [Example 4, 4-(1H-Indol-3-yl)-N-(2-methoxy-4-(4-(methylamino)piperidin-1-yl)phenyl)-5-methylpyrimidin-2-amine] — 2.8-fold lower, 0.052 µM
- COc1cc(N2CCC(N(C)C)C(C)(C)C2)ccc1Nc1ncc(Cl)c(-c2c[nH]c3ccccc23)n1 (stereo not shown) [Example 32, 5-chloro-N-(4-(4-(dimethylamino)-3,3-dimethylpiperidin-1-yl)-2-methoxyphenyl)-4-(1H-indol-3-yl)pyrimidin-2-amine] — 2.3-fold higher, 0.343 µM
- COc1cc(N2CCC(N3C[C@@H](C)O[C@@H](C)C3)CC2)ccc1Nc1ncc(Cl)c(-c2c[nH]c3ccccc23)n1 [Example 24, 5-Chloro-N-(4-(4-((2S,6R)-2,6-dimethylmorpholino)piperidin-1-yl)-2-methoxyphenyl)-4-(1H-indol-3-yl)pyrimidin-2-amine] — within 1.5-fold, 0.14 µM
- COc1cc(N2CCC(N)C(C)(C)C2)ccc1Nc1ncc(Cl)c(-c2c[nH]c3ccccc23)n1 (stereo not shown) [Example 30, N-(4-(4-amino-3,3-dimethylpiperidin-1-yl)-2-methoxyphenyl)-5-chloro-4-(1H-indol-3-yl)pyrimidin-2-amine] — within 1.5-fold, 0.182 µM
- COc1cc(N2CCC(NC3CC3)CC2)ccc1Nc1ncc(Cl)c(-c2c[nH]c3ccccc23)n1 [Example 6, 5-Chloro-N-(4-(4-(cyclopropylamino)piperidin-1-yl)-2-methoxyphenyl)-4-(1H-indol-3-yl)pyrimidin-2-amine] — 2.6-fold lower, 0.058 µM
- COc1cc(N2CCC(N)CC2)ccc1Nc1ncc(Cl)c(-c2cn(C)c3ccccc23)n1 [Example 35, N-(4-(4-aminopiperidin-1-yl)-2-methoxyphenyl)-5-chloro-4-(1-methyl-1H-indol-3-yl)pyrimidin-2-amine] — 1.5-fold lower, 0.098 µM
